In patent US20230233695A1, “MITHRAMYCIN A NANOPARTICLES FOR CANCER TREATMENT” (priority 2021, published 2023):
Like-named read-outs stand apart in the source and are kept apart here.

Key:
NR0B1 = assay: RT-qPCR, NR0B1 mRNA expression; assay type: cell-based; details: 10 nM, 3 cell lines tested
Description: Assessment of mRNA expression by RT-qPCR. Total RNA was extracted from EWS:Fli1^+ cell cultures (TC-71, A673, and RD-ES) exposed to 10 nM of MithA/MANP (final concentration) or DMSO, (0.01% v/v) vehicle and blank polymer for 24 hours by the RNeasy technique with RNeasy columns with on-column DNAse I digestion (Qiagen, Valencia, Calif.) according to the manufacturer's instructions. The concentration and purity of the extracts were determined by UV absorbance at 230/260/280/320 nm wavelengths using a Tecan Infinite M200 spectrophotometer. Template cDNA was synthesized from […] of RNA extract by reverse-transcription using the Quantitect RT kit (Qiagen). Oligonucleotide primer sequences and more detailed information described in Supplemental Table S4). RT-PCR was performed using Quantitect SYBR-green qPCR reagents in a Mastercycler ep Realplex2 instrument (Eppendorf AG, Hamburg, Germany). […] Relative quantification of mRNA expression between MithA/MANP or vehicle/blank polymer treated cells were semi-quantitatively calculated by comparing the average threshold cycle (Ct) for the treated samples to the average Ct for untreated samples (Vehicle or blank polymer. Amplification efficiency was determined for each primer set, and the Pfaffl equation to determine relative fold change in gene expression. Beta-actin was used as the housekeeping gene for normalization.

Female C57BL/6J mice [1] = assay: In vivo toxicity: liver weight and histopathology
Description: (§1) In vivo toxicity of MithA and MANP. Cohorts of n=6-7 C57BL/6J females, 8-10 wko were randomized to receive either intravenous or intraperitoneal administration of saline control vehicle, blank polymer, MithA, or MANP as described in TABLES 2A and 2B. Body weight loss exceeding 20%, death, morbidity, changes in behavior, and any other sign of local or systemic toxicity were recorded.
The liver was harvested for histopathological assessment, weighed, and fixed in 4% paraformaldehyde for 24 hours in the 4° C. and processed for and embedded in paraffin. After embedding, sections were cut at […] thickness and mounted on poly-L-lysine-coated glass slides. Sections were stained with Ehrlich's Hematoxylin and Eosin-Phloxine solutions, Periodic Acid-Schiff (+/− pretreatment with 1% Diastase for 30 min), or Hall's Bile stain with Picrosirius red counter stain. Slides were then dehydrated, cover slipped and imaged on Nikon E800 microscope for qualitative assessment of liver injury. In vivo toxicity of Mitha and MANP study design. (A) study design for supplemental figures. (B) study design for FIGS. 11A-11Q.

Female C57BL/6J mice [2] = assay: In vivo toxicity of MithA and MANP: body weight, death, morbidity
Description: as §1

HEK293.T = assay: XTT cell viability assay, HEK293.T; assay type: cell-based; details: Homo sapiens, HEK-293T, 72 h, read-out: Viability IC50
Description: (§2) Cell viability assays. For viability assays, four EWS:Fli1 fusion tumor cell lines (RD-ES, SK-ES-1, A673, and TC-71), one human embryonic kidney cell line (293.T), one ES tumor cell line with ERG fusion (CHLA-25), one fetal kidney cell line (HEK293.T), one hepatoblastoma cell line (HepG2), one chronic myeloid leukemia (MEG-01), and one acute monocytic leukemia (THP-1) cell line were plated at 5000 cells/well in 100 μL growth media in 96-well plates. After overnight incubation, 50 μL of growth media containing mithramycin A (MithA) (Cayman Chemical, Ann Arbor, Mi. Item Number 11434) or boronic acid-conjugated nano-MithA (MANP) (0.12 nM to 500 nM, final) or dimethyl sulfoxide (DMSO, 0.01% v/v) vehicle was added to the wells, and cell viability assays were performed 72 hours later. The cells were incubated with the activated-XTT solution (mixture of 2% final concentration of activation reagent with the XTT reagent) from ATCC (Catalog Number 30-1011K, XTT Cell Proliferation Assay Kit) for 3 hours prior to recording absorbance. The cell viability was determined by measuring the absorbance wavelength at 475 nm and reference wavelength at 650 nm on an Infinite M200 plate reader (Tecan Group, Ltd. Mannedorf, Switzerland). […]

EWS:Fli1+ cells [3] = assay: XTT cell viability assay, average over EWS:Fli1+ cell lines; assay type: cell-based; details: read-out: average IC50 against EWS:Fli1+ cells
Description: as §2

[4] = human, in vivo; cited from earlier work
Female C57BL/6J mice [5] = assay: In vivo toxicity: serum chemistry
Description: as §1
For serum chemistry blood was collected through a 20G needle 24 h after the last dose, by cardiac puncture under isoflurane anesthesia. The blood was distributed to EDTA-coated (100 uL) or clot-activator (>200 uL) Multivette-600 tubes (Sarstedt, Newton, N.C.) respectively for hematology and serum chemistry analyses. For serum isolation, blood allowed to clot at room temperature for at least 20 minutes, centrifuged 10 kG for 10 minutes, aliquoted and frozen at −80° C. until analysis on a VetScan VS2 instrument (Zoetis, Parsippany-Troy Hills, N.J.) with Zoetis Preventive Profile Plus panel for chemistry.

EWS:Fli1+ cells [6] = details: previous study; read-out: average IC50 in EWS:Fli1 cell lines, previous study; cited from earlier work
[7] = test system: TC-71 (EWS:Fli1+) xenograft tumor; details: 1 mg/kg, five i.v. injections on alternating days
Description: In vivo anti-tumor efficacy. […] On alternating days following inoculation, body weight was recorded, and tumor volume was measured using digital calipers. As each mouse achieved a measurable tumor volume of 200 mm^3, they were randomly allocated saline control vehicle, blank polymer (nano-formulation without MithA conjugation), 1 mg/kg MithA, or 1 mg/kg MANP (1 mg/kg eq. MithA) treatment groups until n=10/group was reached. Mice received 5 intravenous injections of the designated treatment via tail vein, given on alternating day schedule (e.g. M-W-F-Su-Tu). After treatment, tumors were allowed to grow to 1.5 cm^3, at which point the mice were euthanized by CO2 inhalation (FIG. 4.1.). The tumor volume was calculated by the equation: Tumor volume=(L×W^2)/2, in which L and W are the longest and shortest in tumor diameters (mm), respectively. Survival duration was calculated as the number of days for tumor volume to increase from 200 to 1500 mm^3.
Statistical analysis. Microsoft Excel was used to organize data and obtain descriptive statistics (mean and standard deviation). […] For Western blot, tumor-bearing xenograft, and toxicity studies, one-way ANOVA with Bonferroni correction and multiple comparisons were performed using Prism 9. […] For xenograft studies, survival data were used to construct Kaplan-Meier plots and statistical significance of differences between treatment groups (n=10-11/group) was determined by the log-rank test. Differences were accepted as statistically significant when the p-value was ≤0.05.

[8] = five doses 2 mg/kg (eq) on alternating days
[9] = single i.v. 4 mg/kg, within 48 hours
[10] = 5x2 mg/kg i.v., compared to saline vehicle
[11] = 5x4 mg/kg i.p., relative to saline vehicle

Q: For `CO[C@H](C(=O)[C@@H](O)[C@@H](C)O)[C@@H]1Cc2cc3cc(O[C@H]4C[C@@H](O[C@H]5C[C@@H](O)[C@H](O)[C@@H](C)O5)[C@H](O)[C@@H](C)O4)c(C)c(O)c3c(O)c2C(=O)[C@H]1O[C@H]1C[C@@H](O[C@H]2C[C@@H](O[C@H]3C[C@](C)(O)[C@H](O)[C@@H](C)O3)[C@@H](O)[C@@H](C)O2)[C@H](O)[C@@H](C)O1` [MithA, (2S,3S)-2-[(2S,4R,5R,6R)-4-[(2S,4R,5S,6R)-4-[(2S,4S,5R,6R)-4,5-dihydroxy-4,6-dimethyloxan-2-yl]oxy-5-hydroxy-6-methyloxan-2-yl]oxy-5-hydroxy-6-methyloxan-2-yl]oxy-3-[(1 S,3S,4R)-3,4-dihydroxy-1-methoxy-2-oxopentyl]-6-[(2S,4R,5R,6R)-4-[(2S,4R,5S,6R)-4,5-dihydroxy-6-methyloxan-2-yl]oxy-5-hydroxy-6-methyloxan-2-yl]oxy-8,9-dihydroxy-7-methyl-3,4-dihydro-2H-anthracen-1-one], which “NR0B1 mRNA expression” value (NR0B1) is on record?
A: unable to detect significant inhibition

Q: And the liver weight (Female C57BL/6J mice [1]; 5 consecutive days i.p. 4 mg/kg, vs saline)?
A: liver weight reduction

Q: And the liver weight (Female C57BL/6J mice [1]; 5x2 mg/kg i.v. alternating days)?
A: liver weight reduction

Q: What about the liver histology (Female C57BL/6J mice [1]; 5x4 mg/kg i.p.) of the same compound?
A: periportal necrosis with central fatty degeneration, glycogen depletion and bile acid retention

Q: And the “liver histology, Hall's bile stain” value (Female C57BL/6J mice [1]; [8])?
A: retention of bile in large vacuoles

Q: What about the “liver histology, Hematoxylin and Eosin stain” value (Female C57BL/6J mice [1]; [8]) of the same compound?
A: periportal hepatocellular necrosis and infiltrates of inflammatory cells, and distension of collecting ducts

Q: And the “liver histology, Periodic Acid-Schiff (glycogen)” value (Female C57BL/6J mice [1]; five doses 2 mg/kg on alternating days)?
A: glycogen depletion

Q: And the “toxicity by serum chemistry or hematology studies” value (Female C57BL/6J mice [2]; 5 consecutive days i.p. 1 mg/kg)?
A: no significant toxicity

Q: And the death (Female C57BL/6J mice [2]; 5 consecutive days i.p. 4 mg/kg)?
A: One mouse died

Q: What about the body weight (Female C57BL/6J mice [2]; 5 consecutive days i.p. 4 mg/kg (p=0.0016)) of the same compound?
A: progressive and significant body weight loss

Q: And the morbidity (Female C57BL/6J mice [2]; 5 consecutive days i.p. 4 mg/kg, day of harvest (day 6))?
A: one mouse found to be moribund

Q: And the “outward signs of morbidity or toxicity” value (Female C57BL/6J mice [2]; five i.v. injections on alternating days, 1 mg/kg or 2 mg/kg)?
A: no obvious outward signs of morbidity or toxicity

Q: What about the body weight (Female C57BL/6J mice [2]; single i.p. injection, 1 mg/kg and 4 mg/kg, vs saline vehicle) of the same compound?
A: no significant weight loss

Q: What about the “toxicity by serum chemistry or hematology assays” value (Female C57BL/6J mice [2]; single i.p. injection, 1 or 2 mg/kg) of the same compound?
A: did not cause any toxicity

Q: What about the body weight (Female C57BL/6J mice [2]; single i.v. 4 mg/kg, in comparison to equivalent dose of MANP (p=0.048)) of the same compound?
A: significant decrease

Q: What about the death rate (Female C57BL/6J mice [2]; [9]) of the same compound?
A: 75%

Q: And the mice that died (Female C57BL/6J mice [2]; [9])?
A: 6/8

Q: And the IC50 (HEK293.T)?
A: 0.0904 µM

Q: And the IC50 (EWS:Fli1+ cells [3])?
A: 0.01 µM

Q: What about the “ALT and AST elevations, increase in geometric mean” value [4] of the same compound?
A: greater than 13 fold

Q: What about the “treated patients who developed hepatotoxicity” value [4] of the same compound?
A: 10/12

Q: What about the glucose level (Female C57BL/6J mice [5]; 5 consecutive days i.p. 1 mg/kg, vs saline (p=0.005)) of the same compound?
A: decreased

Q: What about the liver toxicity (Female C57BL/6J mice [5]; 5x2 mg/kg (eq.) i.v. alternating days) of the same compound?
A: led to hepatoxicity

Q: And the “decrease in glucose serum level” value (Female C57BL/6J mice [5]; [10])?
A: 1.9 fold

Q: What about the “increase in ALT” value (Female C57BL/6J mice [5]; [10]) of the same compound?
A: 20.9 fold

Q: And the “increase in AST” value (Female C57BL/6J mice [5]; [10])?
A: 4.1 fold

Q: And the “increase in total bilirubin” value (Female C57BL/6J mice [5]; [10])?
A: 1.5 fold

Q: And the “decrease in glucose level” value (Female C57BL/6J mice [5]; [11])?
A: 1.9 fold

Q: What about the “increase of alanine transaminase (ALT)” value (Female C57BL/6J mice [5]; [11]) of the same compound?
A: 16.9 fold

Q: And the “increase of aspartate aminotransferase (AST)” value (Female C57BL/6J mice [5]; [11])?
A: 5.4 fold

Q: What about the “kidney injury or electrolyte imbalance” value (Female C57BL/6J mice [5]; five i.v. injections on alternating days, any treatment group) of the same compound?
A: no evidence of kidney injury or electrolyte imbalance

Q: What about the “changes in serum chemistry” value (Female C57BL/6J mice [5]; single i.p. 4 mg/kg) of the same compound?
A: no significant changes

Q: And the “increase in ALT liver enzyme level” value (Female C57BL/6J mice [5]; single i.v. 4 mg/kg, in comparison to equivalent dose of MANP (p=0.0381))?
A: 1.7 fold

Q: And the IC50 (EWS:Fli1+ cells [6])?
A: 0.012 µM

Q: What about the “body weight in tumor-bearing mice” value [7] of the same compound?
A: no loss of body weight was observed

Q: And the “survival, range” value [7]?
A: 12 to 35 days

Q: And the median survival ([7]; days for tumor to grow from 200 to 1500 mm^3)?
A: 20 days
